# Assay results published in patent US20250353857A1, “COMPOUND ACTIVE AS INHIBITOR OF COLONY STIMULATION FACTOR-1 RECEPTOR (CSF-1 R)” (priority 2022, published 2025).
# Biological target: CSF1R (Homo sapiens (Human), UniProt P07333)
# Test: CSF1R enzymatic inhibitory assay (Invitrogen Z'-LYTE, FRET);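 further: kinase phosphorylates a tyrosine on a coumarin/fluorescein FRET peptide, a protease cuts peptide left unphosphorylated, inhibition quantified from the donor-to-acceptor emission ratio with excitation at 400 nm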
# Type: biochemical
# Conditions: Z'-LYTE assay, ATP concentration equal to Km, average of at least 2 titration curves; read-out: CSF1R (IC50)
# Sequence of CSF1R (P07333 20-972): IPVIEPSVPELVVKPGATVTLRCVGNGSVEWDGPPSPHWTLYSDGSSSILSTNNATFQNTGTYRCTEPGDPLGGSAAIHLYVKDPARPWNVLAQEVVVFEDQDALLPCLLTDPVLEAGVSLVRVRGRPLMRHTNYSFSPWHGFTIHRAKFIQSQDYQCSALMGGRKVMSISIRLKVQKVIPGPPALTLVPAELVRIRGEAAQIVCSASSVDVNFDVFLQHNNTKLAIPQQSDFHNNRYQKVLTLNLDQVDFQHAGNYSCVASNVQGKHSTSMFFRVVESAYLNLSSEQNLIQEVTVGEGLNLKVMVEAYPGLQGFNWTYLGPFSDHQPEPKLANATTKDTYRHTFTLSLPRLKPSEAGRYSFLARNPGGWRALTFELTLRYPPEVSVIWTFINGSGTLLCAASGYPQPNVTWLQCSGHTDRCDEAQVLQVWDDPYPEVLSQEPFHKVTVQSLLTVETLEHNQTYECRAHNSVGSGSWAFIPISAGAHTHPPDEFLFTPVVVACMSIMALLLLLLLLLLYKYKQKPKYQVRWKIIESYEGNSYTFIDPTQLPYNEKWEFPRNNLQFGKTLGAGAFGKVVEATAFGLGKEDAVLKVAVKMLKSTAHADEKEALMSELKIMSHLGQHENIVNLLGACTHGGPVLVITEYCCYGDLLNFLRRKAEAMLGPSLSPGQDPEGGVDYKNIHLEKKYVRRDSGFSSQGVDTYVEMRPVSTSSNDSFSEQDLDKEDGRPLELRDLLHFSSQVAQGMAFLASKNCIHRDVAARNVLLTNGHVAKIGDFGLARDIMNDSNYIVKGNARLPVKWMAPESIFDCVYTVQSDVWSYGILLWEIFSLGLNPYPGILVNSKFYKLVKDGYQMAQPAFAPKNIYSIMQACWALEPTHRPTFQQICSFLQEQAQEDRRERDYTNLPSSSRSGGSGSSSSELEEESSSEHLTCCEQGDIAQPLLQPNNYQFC
row,IC50,Compound
1,11 ± 3 nM,"CN(Cc1ccccn1)c1ncnc2[nH]c(-c3ccc(CO)cc3)nc12 [TIA02-164, N-Methyl-N-(pyridin-2-ylmethyl)-8-(4-(hydroxymethyl)phenyl)-9H-purin-6-amine]"
2,3.4 ± 0.2 nM,"CN(Cc1ccccc1)c1ncnc2[nH]c(-c3ccccc3O)nc12 [TIA073, 2-(6-(Benzyl(methyl)amino)-9H-purin-8-yl)phenol]"
3,1.1 ± 0.1 nM,"COc1ccc(-c2cc3c(N4CCCC4)ncnc3[nH]2)cc1 [MS-46-93, 6-(4-Methoxyphenyl)-4-(pyrrolidin-1-yl)-7H-pyrrolo[2,3-d]pyrimidine]"
4,43 ± 6 nM,"OCc1ccc(-c2nc3c(NCc4ccccc4)ncnc3[nH]2)cc1 [TIA098, (4-(6-(Benzylamino)-9H-purin-8-yl)phenyl)methanol]"
5,2.3 ± 0.2 nM,"CN(Cc1ccccc1F)c1ncnc2[nH]c(-c3ccc(CO)cc3)nc12 [TIA02-130, N-Methyl-N-(2-fluorobenzyl)-8-(4-(hydroxymethyl)phenyl)-9H-purin-6-amine]"
6,3 nM,OC1(c2ccc(-c3cc4c(N5CCCC5C5CCOCC5)ncnc4[nH]3)cc2)COC1 (centres unmarked) [LR-2-067]
7,6.2 ± 0.4 nM,"COc1ccc(-c2cc3c(NCc4ccccc4)ncnc3[nH]2)cc1 [JK-356, N-Benzyl-6-(4-methoxyphenyl)-7H-pyrrolo[2,3-d]pyrimidin-4-amine]"
8,2.7 ± 0.4 nM,"CN(Cc1cc(Cl)ccc1Cl)c1ncnc2[nH]c(-c3ccc(CN4CCOCC4)cc3)cc12 [LR-2-123, N-(2,5-Dichlorobenzyl)-N-methyl-6-(4-(morpholinomethyl)phenyl)-7H-pyrrolo[2,3-d]pyrimidin-4-amine]"
9,707 ± 79 nM,"CN(Cc1ccccc1)c1ncnc2sc(-c3ccc(CO)cc3)cc12 [BAHO-3-107, (4-(4-(Benzyl(methyl)amino)thieno[2,3-d]pyrimidin-6-yl)phenyl)methanol]"
10,3.5 ± 2.2 nM,"CN(Cc1cccc(F)c1)c1ncnc2[nH]c(-c3ccc(CO)cc3)nc12 [TIA02-132, N-Methyl-N-(3-fluorobenzyl)-8-(4-(hydroxymethyl)phenyl)-9H-purin-6-amine]"
11,61 ± 3 nM,"COc1ccc(CN(C)c2ncnc3[nH]c(-c4ccc(CO)cc4)nc23)cc1 [TIA03-078, N-(4-Methoxybenzyl)-N-methyl-8-(4-(hydroxymethyl)phenyl)-9H-purin-6-amine]"
12,2.7 ± 0.1 nM,"COc1cccc(CN(C)c2ncnc3[nH]c(-c4ccc(CO)cc4)nc23)c1 [TIA03-014, N-(3-Methoxybenzyl)-N-methyl-8-(4-(hydroxymethyl)phenyl)-9H-purin-6-amine]"
13,11 ± 2 nM,"CN(Cc1cccc(C(F)(F)F)c1)c1ncnc2[nH]c(-c3ccc(CO)cc3)nc12 [TIA03-108, N-Methyl-N-(3-trifluoromethylbenzyl)-8-(4-(hydroxymethyl)phenyl)-9H-purin-6-amine]"
14,54 ± 5 nM,"C[C@H](c1ccccc1)N(C)c1ncnc2[nH]c(-c3ccccc3)cc12 [KUL01-093, (R)—N-Methyl-6-phenyl-N-(1-phenylethyl)-7H-pyrrolo[2,3-d]pyrimidin-4-amine]"
15,8.7 ± 1.1 nM,"CN(Cc1c(Cl)cccc1Cl)c1ncnc2[nH]c(-c3ccc(CN4CCOCC4)cc3)cc12 [LR-2-094 (2), N-(2,6-Dichlorobenzyl)-N-methyl-6-(4-(morpholinomethyl)phenyl)-7H-pyrrolo[2,3-d]pyrimidin-4-amine]"
16,> 500 nM,Cc1cccc(CN(C)c2ccnc3[nH]ccc23)c1 [CJ1_78]
17,12 ± 1 nM,"Cc1ccc(CN(C)c2ncnc3[nH]c(-c4ccc(CO)cc4)nc23)cc1 [TIA02-174, N-Methyl-N-(4-methylbenzyl)-8-(4-(hydroxymethyl)phenyl)-9H-purin-6-amine]"
18,130 ± 12 nM,"CN(CC1CCN(Cc2ccccc2)CC1)c1ncnc2[nH]c(-c3ccc(CO)cc3)nc12 [TIA04-053, N-Methyl-N-(1-benzylpiperidin-4-ylmethyl)-8-(4-(hydroxymethyl)phenyl)-9H-purin-6-amine]"
19,1.8 nM,"Cc1ccccc1CN(C)c1ncnc2[nH]c(-c3ccc(CO)cc3)nc12 [TIA03-136, N-Methyl-N-(2-methylbenzyl)-8-(4-(hydroxymethyl)phenyl)-9H-purin-6-amine]"

row,IC50,Compound
1,> 200 nM,"Oc1ccc(-c2cc3c(NCc4ccccc4)ncnc3[nH]2)cc1 [JK-367, 4-(4-(Benzylamino)-7H-pyrrolo[2,3-d]pyrimidin-6-yl)phenol]"
2,108 ± 7 nM,"CN(Cc1ccccc1)c1ncnc2[nH]cnc12 [TIA008, N-Benzyl-N-methyl-9H-purin-6-amine]"
3,0.8 nM,"Cc1ccc(F)c(CN(C)c2ncnc3[nH]c(-c4ccc(CN5CCOCC5)cc4)cc23)c1F [SH-01-128, N-(2,6-Difluoro-3-methylbenzyl)-N-methyl-6-(4-(morpholinomethyl)phenyl)-7H-pyrrolo[2,3-d]pyrimidin-4-amine]"
4,> 1000 nM,"CC(C)N(Cc1ccccc1)c1ncnc2[nH]c(-c3ccc(CO)cc3)nc12 [EH02-21, (4-(6-(Benzyl(isopropyl)amino)-9H-purin-8-yl)phenyl)methanol]"
5,5.7 ± 0.3 nM,"COc1ccc(CN(C)c2ncnc3[nH]c(-c4ccc(CO)cc4)nc23)cc1OC [TIA03-080, N-(3,4-Dimethoxybenzyl)-N-methyl-8-(4-(hydroxymethyl)phenyl)-9H-purin-6-amine]"
6,85 ± 10 nM,"c1ccc(CNc2ncnc3[nH]c(-c4ccccc4)nc23)cc1 [TIA099, N-Benzyl-8-phenyl-9H-purin-6-amine]"
7,2.2 nM,"CN(Cc1cccnc1)c1ncnc2[nH]c(-c3ccccc3)nc12 [TIA109, N-Methyl-8-phenyl-N-(pyridin-3-ylmethyl)-9H-purin-6-amine]"
8,> 1000 nM,"CCOc1ccccc1-c1nc2c(N(C)Cc3ccccc3)ncnc2[nH]1 [JKS01-057, N-Benzyl-8-(2-ethoxyphenyl)-N-methyl-9H-purin-6-amine]"
9,3 nM,OCC(O)(CO)c1ccc(-c2cc3c(N4CCCC4C4CCOCC4)ncnc3[nH]2)cc1 (centres unmarked) [LR-2-052-2]
10,9.1 ± 1.1 nM,"Cc1ccc(F)c(CN(C)c2ncnc3[nH]c(-c4ccccc4)cc23)c1F [SH-01-126, N-(2,6-Difluoro-3-methylbenzyl)-N-methyl-6-phenyl-7H-pyrrolo[2,3-d]pyrimidin-4-amine]"
11,0.7 ± 0.2 nM,"CN(CC1CCCCC1)c1ncnc2[nH]c(C3=CCCCC3)nc12 [TIA03-186, 8-(Cyclohex-1-en-1-yl)-N-(cyclohexylmethyl)-N-methyl-9H-purin-6-amine]"
12,1.2 nM,"CN(Cc1c(F)cccc1F)c1ncnc2[nH]c(-c3ccc(CN4CCOCC4)cc3)cc12 [SH-01-129, N-(2,6-Difluorobenzyl)-N-methyl-6-(4-(morpholinomethyl)phenyl)-7H-pyrrolo[2,3-d]pyrimidin-4-amine]"
13,0.7 ± 0.1 nM,"COc1ccc(-c2cc3c(N4CCCC4C)ncnc3[nH]2)cc1 (centres unmarked) [MS1-60-134, 6-(4-Methoxyphenyl)-4-(2-methylpyrrolidin-1-yl)-7H-pyrrolo[2,3-d]pyrimidine]"
14,3 ± 0.6 nM,"CN(Cc1cccs1)c1ncnc2[nH]c(-c3ccc(CO)cc3)nc12 [TIA03-066, N-Methyl-N-(thiophen-2-ylmethyl)-8-(4-(hydroxymethyl)phenyl)-9H-purin-6-amine]"
15,0.7 ± 0.1 nM,"CN(Cc1ccccc1)c1ncnc2[nH]c(-c3ccccc3)nc12 [TIA072, N-Benzyl-N-methyl-8-phenyl-9H-purin-6-amine]"
16,9.2 ± 3.3 nM,"CN(Cc1c(F)cccc1F)c1ncnc2[nH]c(-c3ccccc3)cc12 [SH-01-127, N-(2,6-Difluorobenzyl)-N-methyl-6-phenyl-7H-pyrrolo[2,3-d]pyrimidin-4-amine]"
17,85 nM,NC1NC=Nc2[nH]c(-c3ccc(CO)cc3)cc21 (centres unmarked) [TIA05-102]
18,> 50 nM,"CCN(Cc1ccccc1)c1ncnc2[nH]c(-c3ccc(OC)cc3)nc12 [EH-93, N-Benzyl-N-ethyl-8-(4-methoxyphenyl)-9H-purin-6-amine]"
19,0.9 ± 0.9 nM,"CN(Cc1cccc(Cl)c1)c1ncnc2[nH]c(-c3ccc(CN4CCOCC4)cc3)cc12 [LR-2-088 (3), N-(3-Chlorobenzyl)-N-methyl-6-(4-(morpholinomethyl)phenyl)-7H-pyrrolo[2,3-d]pyrimidin-4-amine]"

row,Compound,IC50
1,"Cc1cccc(CN(C)c2ncnc3[nH]c(-c4cnn(C(C)C)c4)cc23)c1 [LR-2-108, 6-(1-Isopropyl-1H-pyrazol-4-yl)-N-methyl-N-(3-methylbenzyl)-7H-pyrrolo[2,3-d]pyrimidin-4-amine]",0.4 ± 0.3 nM
2,"OCc1ccc(-c2cc3c(N4CCCC4c4ccccc4)ncnc3[nH]2)cc1 (centres unmarked) [TIA05-178, (4-(4-(2-Phenylpyrrolidin-1-yl)-7H-pyrrolo[2,3-d]pyrimidin-6-yl)phenyl)methanol]",0.7 ± 0.1 nM
3,"CN(Cc1ccccc1)c1ncnc2[nH]ccc12 [TIA04-067, N-Benzyl-N-methyl-7H-pyrrolo[2,3-d]pyrimidin-4-amine]",68 ± 2 nM
4,"Cc1cccc(CN(C)c2ncnc3[nH]c(-c4ccc(P(C)(C)=O)cc4)cc23)c1 [LR-2-116, Dimethyl(4-(4-(methyl(3-methylbenzyl)amino)-7H-pyrrolo[2,3-d]pyrimidin-6-yl)phenyl)phosphine oxide]",< 0.2 nM
5,"Cc1cccc(CN(C)c2ncnc3[nH]ccc23)c1 [TIA04-069, N-Methyl-N-(3-methylbenzyl)-7H-pyrrolo[2,3-d]pyrimidin-4-amine]",35 nM
6,"CN(Cc1cccnc1)c1ncnc2[nH]c(-c3ccc(CO)cc3)nc12 [TIA03-016, N-Methyl-N-(pyridin-3-ylmethyl)-8-(4-(hydroxymethyl)phenyl)-9H-purin-6-amine]",3.8 ± 0.4 nM
7,"Cc1cccc(CN(C)c2ncnc3[nH]c(-c4ccc(C(O)(CO)CO)cc4)cc23)c1 [LR-2-060-2, 2-(4-(4-(Methyl(3-methylbenzyl)amino)-7H-pyrrolo[2,3-d]pyrimidin-6-yl)phenyl)propane-1,2,3-triol]",3 nM
8,"Cc1cccc(CN(C)c2ncnc3[nH]c(-c4ccc(-c5nnn[nH]5)cc4)cc23)c1 [FAB 02-14, 6-(4-(1H-Tetrazol-5-yl)phenyl)-N-methyl-N-(3-methylbenzyl)-7H-pyrrolo[2,3-d]pyrimidin-4-amine]",3 nM
9,"Cc1cccc(CN(C)c2ncnc3[nH]c(-c4ccc(C5(O)COC5)cc4)cc23)c1 [LR-2-060-1, 3-(4-(4-(Methyl(3-methylbenzyl)amino)-7H-pyrrolo[2,3-d]pyrimidin-6-yl)phenyl)oxetan-3-ol]",0.3 nM
